We go through 7 molecules from patent US11219596B2, “Compositions and methods for ophthalmic and/or other applications” (The Johns Hopkins University, priority 2012, dated 2022).

Where two headings read alike, the source gives them in different places.

Data set [1] is described as follows: Multiple particle tracking of pyrene nanoparticles milled with PVAs and other surface-altering agents in CVM. As to the method: An aqueous dispersion containing pyrene and one of the surface-altering agents listed above was stirred with milling media until particle size was reduced below 500 nm (as measured by dynamic light scattering).
Prior to quantifying mobility of pyrene particles, their spatial distribution in the mucus sample was assessed visually.

The nature of data set [2]: Multiple particle tracking of pyrene/stabilizer nanoparticles in CVM. As to the method: Prior to quantifying mobility of the produced pyrene nanoparticles, their spatial distribution in the mucus sample was assessed by microscopy at low magnifications (10×, 40×).
CVM was collected by inserting a Softcup® menstrual collection cup into the vaginal tract as described by the product literature for between 30 seconds and 2 minutes. After removal the CVM was then collected from the Softcup® by gentle centrifugation at ˜30×G to ˜120×G in a 50 mL centrifuge tube. In Example 1, CVM was used undiluted and fresh (stored for no longer than 7 days under refrigerated conditions). Barrier and transport of all CVM samples used in Example 1 were verified with negative (200 nm carboxylated polystyrene particles) and positive (200 nm polystyrene particles modified with PEG 5K) controls. In Example 2, CVM was lyophilized and reconstituted. In Example 2, mucus was frozen at −50° C. and then lyophilized to dryness. Samples were then stored at −50° C. Before use, the mucus was reconstituted by grinding the solid into a fine powder using a mortar and pestle followed by water addition to a final volume equal to the original volume to 2 times the original volume. The reconstituted mucus was then incubated at 4° C. for 12 hours and used as described in Example 2. Barrier and transport of all CVM samples used in Example 2 were verified with negative (200 nm carboxylated polystyrene particles) and positive (F127 coated 200 nm polystyrene particles) controls.

The subject of data set [3] is vascular leakage after intravitreal injection of VEGF. As to the kind of experiment: Rabbit VEGF-challenge model (fluorescein angiography). It counts as in vivo, Dutch belted rabbits. The conditions noted are these: day 6; VEGF intravitreal on day 3; 5% axitinib-MPP 50 μL every 4 hours days 1-6, or one intravitreal Avastin on day 1. The source says: On day 3, the rabbits received an intravitreal injection of VEGF. On day 6, the rabbits were accessed for leakage via fluorescein angiography.
In this model, Dutch belted rabbits were given an intravitreal injection of VEGF to stimulate vascular growth. Fluorescein angiography was used to determine the degree to which the rabbits developed abnormal vascular and leakage.

The format of data set [4] is in vitro ADME, human. An excerpt: The mobility of LE nanoparticles from the produced nanosuspensions in fresh undiluted human cervicovaginal mucus (CVM) was characterized by dark-field microscopy using a CytoViva® High Resolution Illumination System which allows visualization of fluorescent and non-fluorescent nano-sized objects. […] Mobility of particles in the movies was scored on a scale from 0 to 3 in order of increasing mobility, in a single-blind experiment by independent observers. The scoring criterion is as follows: 0-0.5 immobile; 0.51-1.5 slightly mobile; 1.51-2.5 moderately mobile; and 2.51-3.0 very mobile.

[5] abbreviates: pyrene nanoparticles milled with the surface-altering agent, in CVM.

As for `CCCCCCCCCCCCCCCC[N+](C)(C)C` [CTAB, Cetytrimethylammonium bromide], in data set [1] (setting [5]), the “Sample (relative) <Vmean>rel” value is given as −0.02 and the “Sample <Vmean>” value is recorded as 0.32 um/s. The “Sample <Vmean> (ensemble-average velocity)” value in data set [2] (pyrene/stabilizer nanoparticles in CVM) was 0.32 um/s. Besides, in data set [2] (pyrene/stabilizer nanoparticles in CVM, relative to negative and positive controls), the “Sample (relative) <Vmean>rel” value is reported as −0.02.
As to “Avastin®: positive control, one intravitreal injection; commonly used off-label to treat AMD”, the “retinal vessel growth and leakage (fluorescein angiography)” value in data set [3] is recorded as “no change in retinal vasculature”.
For the molecule Pluronic F68, the “mobility score in CVM” value in data set [4] is less than 0.50.
On the same count and under the same terms, as for Pluronic F127, the figure is greater than 2.51; as for Pluronic P123, 1.51.-2.50.
For Tween 80, in data set [1], the “Sample (relative) <Vmean>rel” value stood at 0.17 and the “Sample <Vmean>” value was 0.94 um/s. Moreover, in data set [2], the “Sample (relative) <Vmean>rel” value was determined as 0.17 and the “Sample <Vmean> (ensemble-average velocity)” value was 0.94 um/s.
As for Tyloxapol, in data set [1], the “Sample (relative) <Vmean>rel” value was −0.02 and the “Sample <Vmean>” value is recorded as 0.42 um/s. Also, in data set [2], the “Sample (relative) <Vmean>rel” value is reported as −0.02 and the “Sample <Vmean> (ensemble-average velocity)” value is 0.42 um/s.
